# Source: the supplement of paper PMC10307832
# Tests used:
# Experiment in all cases: relative viability (nuclei count vs DMSO), 5 days (fraction); higher = more cells survive
# [1] = test system: NCI-H1915
# How it was run: (§1)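 Cells from lung cancer lines were seeded into 1536-well plates and, one day later, dosed by pin tool. Treatments were either a single drug or a fixed dose of an anchor drug with five library-drug doses (not always all listed) in √10 steps. After 5 days, nuclei were stained in a one-step fixation (final 0.05% Triton X-100, 1% formaldehyde, 1 ug/ml Hoechst) and counted on 4× images, and relative viability is the treated-to-vehicle nuclei ratio, as the median of duplicate plates.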
# [2] = test system: NCI-H23
# How it was run: as §1
# [3] = test system: PC-3 [JPC-3]
# How it was run: as §1
# [4] = test system: NCI-H1793
# How it was run: as §1
# [5] = test system: LCLC-97TM1
# How it was run: as §1
# [6] = test system: LU99A
# How it was run: as §1
# [7] = test system: SK-LU-1
# How it was run: as §1
# [8] = test system: A-427
# How it was run: as §1
# [9] = test system: HARA
# How it was run: as §1
# [10] = test system: NCI-H460
# How it was run: as §1
# [11] = test system: NCI-H650
# How it was run: as §1
# [12] = test system: BEN
# How it was run: as §1
# [13] = test system: NCI-H441
# How it was run: as §1
# [14] = test system: NCI-H2023
# How it was run: as §1
# [15] = test system: NCI-H1666
# How it was run: as §1
# [16] = test system: LXF-289
# How it was run: as §1
# [17] = test system: NCI-H1944
# How it was run: as §1
# [18] = test system: NCI-H322M
# How it was run: as §1
# [19] = test system: NCI-H1395
# How it was run: as §1
# [20] = test system: NCI-H2126
# How it was run: as §1
# [21] = test system: NCI-H1563
# How it was run: as §1
# [22] = test system: LOU-NH91
# How it was run: as §1
# [23] = test system: NCI-H1755
# How it was run: as §1
smiles,measurement,setting,value
CCCCCCCCCCCC1=C(O)C(=O)C=C(O)C1=O [Embelin] + C[C@]1(O)C[C@@H](c2nc(-c3ccc4ccc(-c5ccccc5)nc4c3)c3c(N)nccn32)C1 [Linsitinib] (partner 1 µM),relative viability,[1]; first compound 0.08 µM,1.17
same,relative viability,[1]; first compound 0.8 µM,1.11
same,relative viability,[1]; first compound 2.53 µM,1.13
same,relative viability,[1]; first compound 8 µM,1.12
same,relative viability,[2]; first compound 0.08 µM,0.548
same,relative viability,[2]; first compound 0.8 µM,0.547
same,relative viability,[2]; first compound 2.53 µM,0.609
same,relative viability,[2]; first compound 8 µM,0.652
same,relative viability,[3]; first compound 0.08 µM,0.972
same,relative viability,[3]; first compound 0.8 µM,0.967
same,relative viability,[3]; first compound 2.53 µM,0.947
same,relative viability,[3]; first compound 8 µM,0.983
same,relative viability,[4]; first compound 0.08 µM,0.736
same,relative viability,[4]; first compound 0.8 µM,1.15
same,relative viability,[4]; first compound 2.53 µM,1.5
same,relative viability,[4]; first compound 8 µM,0.853
same,relative viability,[5]; first compound 0.8 µM,0.239
same,relative viability,[5]; first compound 2.53 µM,0.233
same,relative viability,[5]; first compound 8 µM,0.204
same,relative viability,[6]; first compound 0.08 µM,0.537
same,relative viability,[6]; first compound 0.8 µM,0.618
same,relative viability,[6]; first compound 2.53 µM,0.552
same,relative viability,[6]; first compound 8 µM,0.472
same,relative viability,[7]; first compound 0.08 µM,1.17
same,relative viability,[7]; first compound 0.8 µM,1.28
same,relative viability,[7]; first compound 2.53 µM,1.1
same,relative viability,[7]; first compound 8 µM,0.993
same,relative viability,[8]; first compound 0.08 µM,1.11
same,relative viability,[8]; first compound 0.8 µM,1.12
same,relative viability,[8]; first compound 2.53 µM,1.12
same,relative viability,[8]; first compound 8 µM,1.09
same,relative viability,[9]; first compound 0.08 µM,0.972
same,relative viability,[9]; first compound 0.8 µM,0.914
same,relative viability,[9]; first compound 2.53 µM,0.996
same,relative viability,[9]; first compound 8 µM,1.16
same,relative viability,[10]; first compound 0.08 µM,0.808
same,relative viability,[10]; first compound 0.8 µM,0.988
same,relative viability,[10]; first compound 2.53 µM,1.18
same,relative viability,[10]; first compound 8 µM,0.69
same,relative viability,[11]; first compound 0.08 µM,0.812
same,relative viability,[11]; first compound 0.8 µM,1.41
same,relative viability,[11]; first compound 2.53 µM,0.653
same,relative viability,[11]; first compound 8 µM,0.716
same,relative viability,[12]; first compound 0.08 µM,0.976
same,relative viability,[12]; first compound 0.8 µM,1.25
same,relative viability,[12]; first compound 2.53 µM,1.09
same,relative viability,[12]; first compound 8 µM,0.898
same,relative viability,[13]; first compound 0.08 µM,0.598
same,relative viability,[13]; first compound 0.8 µM,0.559
same,relative viability,[13]; first compound 2.53 µM,0.539
same,relative viability,[13]; first compound 8 µM,0.622
same,relative viability,[14]; first compound 0.08 µM,0.707
same,relative viability,[14]; first compound 0.8 µM,0.66
same,relative viability,[14]; first compound 2.53 µM,0.794
same,relative viability,[14]; first compound 8 µM,0.609
same,relative viability,[15]; first compound 0.08 µM,0.898
same,relative viability,[15]; first compound 0.8 µM,0.995
same,relative viability,[15]; first compound 2.53 µM,0.83
same,relative viability,[15]; first compound 8 µM,0.97
same,relative viability,[16]; first compound 0.08 µM,0.991
same,relative viability,[16]; first compound 0.8 µM,0.957
same,relative viability,[16]; first compound 2.53 µM,1
same,relative viability,[16]; first compound 8 µM,1.01
same,relative viability,[17]; first compound 0.08 µM,1.15
same,relative viability,[17]; first compound 0.8 µM,1.39
same,relative viability,[17]; first compound 2.53 µM,1.17
same,relative viability,[17]; first compound 8 µM,1.12
same,relative viability,[18]; first compound 0.08 µM,0.936
same,relative viability,[18]; first compound 0.8 µM,1.08
same,relative viability,[18]; first compound 2.53 µM,1.1
same,relative viability,[18]; first compound 8 µM,0.856
same,relative viability,[19]; first compound 0.08 µM,1.22
same,relative viability,[19]; first compound 0.8 µM,1.38
same,relative viability,[19]; first compound 2.53 µM,0.99
same,relative viability,[19]; first compound 8 µM,0.873
same,relative viability,[20]; first compound 0.08 µM,0.714
same,relative viability,[20]; first compound 0.8 µM,0.787
same,relative viability,[20]; first compound 2.53 µM,0.746
same,relative viability,[20]; first compound 8 µM,0.676
same,relative viability,[21]; first compound 0.08 µM,1.14
same,relative viability,[21]; first compound 0.8 µM,1.18
same,relative viability,[21]; first compound 2.53 µM,1.16
same,relative viability,[21]; first compound 8 µM,1.16
same,relative viability,[22]; first compound 0.08 µM,1.02
same,relative viability,[22]; first compound 0.8 µM,1.23
same,relative viability,[22]; first compound 2.53 µM,1.03
same,relative viability,[22]; first compound 8 µM,0.877
same,relative viability,[23]; first compound 0.08 µM,1.03
same,relative viability,[23]; first compound 0.8 µM,1.06
same,relative viability,[23]; first compound 2.53 µM,1.07
same,relative viability,[23]; first compound 8 µM,0.98
